These results are taken from patent publication US10980794B2, “PRMT5 inhibitors and uses thereof” (Epizyme, Inc., priority 2012, dated 2021).

Broadly, the EC50 is the concentration needed to bring the measured effect to its halfway point.

One test concerns Z-138 cell line. The test can be described thus: Z-138 Proliferation Assay (Cell Titer Glo, 5 days). It counts as cell-based. The note with it: Z-138 cells. The source says: RPMI/Glutamax medium, penicillin-streptomycin, heat inactivated fetal bovine serum were purchased from Life Technologies, Grand Island, N.Y., USA. V-bottom polypropylene 384-well plates were purchased from Greiner Bio-One, Monroe, N.C., USA. Cell culture 384-well white opaque plates were purchased from Perkin Elmer, Waltham, Mass., USA. Cell-Titer Glo® was purchased from Promega Corporation, Madison, Wis., USA. SpectraMax M5 plate reader was purchased from Molecular Devices LLC, Sunnyvale, Calif., USA.
A compound source plate was prepared by performing triplicate nine-point 3-fold serial dilutions in DMSO, beginning at 10 mM (final top concentration of compound in the assay was 20 μM and the DMSO was 0.2%). A 100 nL aliquot from the compound stock plate was added to its respective well in the cell plate. […] Luminescence was read in the SpectraMax M5 microplate reader. The concentration of compound inhibiting cell viability by 50% was determined using a 4-parametric fit of the normalized dose response curves.
In general terms: ATP-based viability assays read luminescence as a measure of living cells.

Test [1] has as its system symmetric di-methyl arginine in Z-138 cells. Description: Z-138 Methylation Assay (In Cell Western for symmetric di-methyl arginine and DNA content). It counts as cell-based. As to conditions: read-out: ICW EC50. The text has this: [formula] [formula] Where top and bottom are the normally allowed to float, but may be fixed at 100 or 0 respectively in a 3-parameter fit. The Hill Coefficient normally allowed to float but may also be fixed at 1 in a 3-parameter fit. Y is the % inhibition and X is the compound concentration.
RPMI/Glutamax medium, penicillin-streptomycin, heat inactivated fetal bovine serum, and D-PBS were purchased from Life Technologies, Grand Island, N.Y., USA. Odyssey blocking buffer, 800 CW goat anti-rabbit IgG (H+L) antibody, and Licor Odyssey infrared scanner were purchased from Licor Biosciences, Lincoln, Nebr., USA. Symmetric di-methyl arginine antibody was purchased from EMD Millipore, Billerica, Mass., USA. 16% Paraformaldehyde was purchased from Electron Microscopy Sciences, Hatfield, Pa., USA. […]
First, the ratio for each well was determined by:
Each plate included fourteen control wells of DMSO only treatment (minimum inhibition) as well as fourteen control wells for maximum inhibition treated with 3 μM of a reference compound (Background wells). The average of the ratio values for each control type was calculated and used to determine the percent inhibition for each test well in the plate. […] Percent inhibition was determined and IC50 curves were generated using triplicate wells per concentration of compound.

In the case of `CN(C[C@H](O)CN1CCc2ccccc2C1)C(=O)c1cc(NC2CCOCC2)ncn1` [Compound 232], the figures for the EC50 (with Z-138 cell line; in test [1]) were 1000 to 10000 nM and 101 to 1000 nM, respectively.
